In patent publication US20250051285A1, “C[…] FORM OF EP4 ANTAGONIST” (Eisai R&D Management Co., Ltd., priority 2021, published 2025):

Experiments:
Format in all cases: physicochemical
[1] = Solubility in aqueous solutions
[2] = Solubility in organic solvents and water
[3] = Hygroscopicity by dynamic vapor sorption (DVS)
Description: Hygroscopicity of crystalline free acid form of Compound 1 was measured using the dynamic vapor sorption (DVS) method.

[4] = Dissociation constant (pKa) by capillary electrophoresis; details: capillary electrophoresis (CE), buffer solution I = 0.05, 25° C.

C[C@H](NC(=O)c1c(C(F)F)nn(C)c1Oc1cccc(C(F)(F)F)c1)c1ccc(C(=O)O)cc1 [Compound 1, (S)-4-(1-(3-(difluoromethyl)-1-methyl-5-(3-(trifluoromethyl)phenoxy)-1H-pyrazole-4-carboxamido)ethyl)benzoic acid]
Solubility in 0.1N HCl ([1]; 0.1N HCl): 0.3, pH 9) and practically insoluble in 0.1N HCl and
Solubility in Britton-Robinson buffer pH 9 ([1]; Britton-Robinson buffer, I = 0.3, pH 9): Very slightly soluble in Britton-Robinson buffer (I =
Solubility in 2-propanol ([2]; 2-propanol): ethanol and ethyl acetate, slightly soluble in 2-
Solubility in acetonitrile ([2]; acetonitrile): soluble
Solubility in ethanol ([2]; ethanol): sparingly soluble
Solubility in ethyl acetate ([2]; ethyl acetate): sparingly soluble
Solubility in heptane ([2]; heptane): practically insoluble in water and heptane.
Solubility in water ([2]; water): practically insoluble in water and heptane.
Hygroscopicity ([3]; DVS adsorption and desorption isotherm): Non-hygroscopic
Weight change in DVS ([3]; relative humidity 5% to 95% RH at 25° C.): No significant weight change
pKa [4]: 4.1
